Assay results: patent US20120244208A1, “COSMETIC SKIN CARE METHODS AND COMPOSITIONS” (priority 2009, published 2012)

How the values were obtained:
fibroblasts = conditions: concentration of 1 microM; cited from earlier work
NHDFs = test: Viability monitored visually for 6 days; assay type: cell-based, human
Procedure: Cytotoxicity was measured using the MTT assay on NHDFs. Human dermal cells were used as it approximates the intended use. No cytotoxicity was found. […] All other cells maintained their viability over the six day period.

[1] = test system: Normal human dermal fibroblasts (NHDFs) seeded on collagen type 1 gels; test: Fibroblast-seeded collagen gel contraction; assay type: cell-based; conditions: for % of original size (mean): 0.1 mg/ml lactoferrin, 0.1 mg/ml ICI 118 551, 1.0 mg/ml Isoproterenol, 3.5×10^4 cells per well
Procedure: Normal human dermal fibroblasts (NHDFs) were obtained by tissue donation following circumcision following patient informed consent. The tissue was rinsed in Phosphate Buffered Saline (PBS) and Pen/Strep and Amphotericin B (Pen/strep) at 10 ug/ml. The tissue was then minced to 1 mm2 sections and suspended in Trypsin-EDTA 1:250 at room temperature (RT) for 1 hr. The tissue was then washed twice by centrifugation at 2500 g for 3min in serum supplemented DMEM/F12. A single cell suspension was created using mechanical disaggregation. The cells were counted using a haemocytometer and cultured at 1×10^6 cells per T75 tissue culture flask in DMEM/F12 containing 10% Fetal Bovine Serum (FBS) and 10 ug/ml Pen/strep. Incubators were kept at 37° C. and 5% CO2. Medium was changed every 3-4 days and cells were used from the 4th passage in vitro.
Collagen gels were formed. A solution of collagen, consisting of 2 mg/ml type 1 bovine collagen from bovine Achilles tendon in 0.5M acetic acid, was made. This made up 80% of the gel. Another 10% was made up of 10×PBS and the remaining volume was made up of FBS. The pH of the entire solution was adjusted to 7.4 using NaOH. 400 μl of the solution was placed into each well of a 24 well plate. The gels were set at 37° C. for 1 hr. After ensuring that the gels were set properly, they were detached from the sides of the wells and exposed to 1 ml fully supplemented DMEM/F12 overnight to acclimatize. The complete gels were seeded with 3.5×10^4 cells per well and the test compounds were added at this point. The test compound were added as follows: 0.1 mg/ml lactoferrin, 0.1 mg/ml ICI 118 551, 1.0 mg/ml Isoproterenol. A cell only and no cell control were also incuded.
Photographs were taken from the same distance at 0, 3, 6, 12 and 24 hrs of exposure using a Canon Powershot A640 10MP camera. The photos were transferred to CorelDRAW X3 and the inside diameter of the well as well as the outer edge of the gel were measured using the circle tool. […] These two diameters were then converted to a percentage of the well diameter by the formula geloutside/wellinside×100=gelrelative. This value was then worked out the same way for each gel at every time period. The time period Ohrs taken to be 100% of gel size and each time period after that was compared to it as a relative percentage. The standard deviation was calculated based on the original relative percentage to the well.

[2] = test system: Normal human dermal fibroblasts (NHDFs) seeded on collagen type 1 gels; test: Fibroblast-seeded collagen gel contraction; assay type: cell-based
[3] = 0 hrs (taken to be 100% of gel size)

| Molecule | collagen gel contraction by fibroblasts relative to control (fibroblasts) | viability monitored visually (NHDFs) | % of original size (mean) [1, 3] [%] | % of original size (mean) ([1]; 3 hrs) [%] | % of original size (mean) ([1]; 6 hrs) [%] | % of original size (mean) ([1]; 12 hrs) [%] | % of original size (mean) ([1]; 24 hrs) [%] | rate of gel contraction compared with Lactoferrin and cells only controls ([1]; over 24 hrs) | ideal concentration for gel contraction ([2]; dose response 0.01 mg/ml to 0.2 mg/ml, gel containing 3.5×10^4 cells) [mg/mL] | activity at lower concentrations (gel contraction) ([2]; dose response from 0.01 mg/ml, concentrations lower than 0.1 mg/ml) | effect of higher concentrations on rate of contraction ([2]; dose response up to 0.2 mg/ml, concentrations higher than 0.1 mg/ml) | return of gels to original dimensions ([2]; monitored for a further 3 days) |
| --- | --- | --- | --- | --- | --- | --- | --- | --- | --- | --- | --- | --- |
| YTRVVWXA: peptide with the amino acid sequence YTRVVWXA (a fragment from Lactoferrin) | about three times control |  |  |  |  |  |  |  |  |  |  |  |
| CC(C)NCC(O)c1ccc(O)c(O)c1 (centres unmarked) [Isoproterenol] |  | started to lose viability | 100 | 100.8622 | 79.6766 | 82.7588 | 83.79 |  |  |  |  |  |
| Cc1ccc(OCC(O)C(C)NC(C)C)c2c1CCC2 (racemic) [ICI 118 551, erythro-dl-1-(7-methylindan-4-yloxy)-3-isopropylaminobutan-2-ol] |  |  | 100 | 66.04 | 53.8 | 51.33 | 51.86 | contract the gels at a higher rate | 0.1 | not be significantly active | did not seem to increase the rate of contraction significantly | did not return to their original dimensions |
